PubChem BioAssay (NCI)
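Five concentrations, 48 hours, 96-well plates. The concentration for full growth arrest is given as TGI.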

Key:
Assay in all cases: NCI anticancer screen, dose series, 48 h
786-0 renal = test system: 786-0 renal
A498 renal = test system: A498 renal
A549 NSCLC = test system: A549 NSCLC
ACHN renal = test system: ACHN renal
BT-549 breast = test system: BT-549 breast
CAKI-1 renal = test system: CAKI-1 renal
CCRF-CEM leukemia = test system: CCRF-CEM leukemia
COLO 205 colon = test system: COLO 205 colon
DU-145 prostate = test system: DU-145 prostate
EKVX NSCLC = test system: EKVX NSCLC
HCC-2998 colon = test system: HCC-2998 colon
HCT-116 colon = test system: HCT-116 colon
HCT-15 colon = test system: HCT-15 colon
HL-60(TB) leukemia = test system: HL-60(TB) leukemia
HOP-62 NSCLC = test system: HOP-62 NSCLC
HOP-92 NSCLC = test system: HOP-92 NSCLC
HS 578T breast = test system: HS 578T breast
HT29 colon = test system: HT29 colon
IGROV1 ovarian = test system: IGROV1 ovarian
K-562 leukemia = test system: K-562 leukemia
KM12 colon = test system: KM12 colon
LOX IMVI melanoma = test system: LOX IMVI melanoma
M14 melanoma = test system: M14 melanoma
MALME-3M melanoma = test system: MALME-3M melanoma
MCF7 breast = test system: MCF7 breast
MDA-MB-231 breast = test system: MDA-MB-231 breast
MDA-MB-435 = test system: MDA-MB-435
MDA-N = test system: MDA-N
MOLT-4 leukemia = test system: MOLT-4 leukemia
NCI-H226 lung = test system: NCI-H226 lung
NCI-H23 lung = test system: NCI-H23 lung
NCI-H460 lung = test system: NCI-H460 lung
NCI-H522 lung = test system: NCI-H522 lung
NCI/ADR-RES ovarian = test system: NCI/ADR-RES ovarian
OVCAR-4 ovarian = test system: OVCAR-4 ovarian
OVCAR-5 ovarian = test system: OVCAR-5 ovarian
OVCAR-8 ovarian = test system: OVCAR-8 ovarian
PC-3 prostate = test system: PC-3 prostate
RPMI-8226 leukemia = test system: RPMI-8226 leukemia
RXF 393 renal = test system: RXF 393 renal
SF-268 CNS = test system: SF-268 CNS
SF-295 CNS = test system: SF-295 CNS
SF-539 CNS = test system: SF-539 CNS
SK-MEL-2 melanoma = test system: SK-MEL-2 melanoma
SK-MEL-28 melanoma = test system: SK-MEL-28 melanoma
SK-OV-3 ovarian = test system: SK-OV-3 ovarian
SN12C renal = test system: SN12C renal
SNB-19 CNS = test system: SNB-19 CNS
SNB-75 CNS = test system: SNB-75 CNS
SW-620 colon = test system: SW-620 colon
T-47D breast = test system: T-47D breast
TK-10 renal = test system: TK-10 renal
U251 CNS = test system: U251 CNS
UACC-257 melanoma = test system: UACC-257 melanoma
UACC-62 melanoma = test system: UACC-62 melanoma

Measured: TGI

O=c1c(-c2ccccc2)c(SCCN2CCCC2)n(-c2ccccc2)c(=S)n1-c1ccccc1
> 100 µM: 786-0 renal | A498 renal | A549 NSCLC | ACHN renal | BT-549 breast | CAKI-1 renal | CCRF-CEM leukemia | COLO 205 colon | DU-145 prostate | EKVX NSCLC | HCC-2998 colon | HCT-116 colon | HCT-15 colon | HL-60(TB) leukemia | HOP-62 NSCLC | HOP-92 NSCLC | HS 578T breast | HT29 colon | IGROV1 ovarian | K-562 leukemia | KM12 colon | LOX IMVI melanoma | M14 melanoma | MALME-3M melanoma | MCF7 breast | MDA-MB-231 breast | MDA-MB-435 | MDA-N | MOLT-4 leukemia | NCI-H226 lung | NCI-H23 lung | NCI-H460 lung | NCI-H522 lung | NCI/ADR-RES ovarian | OVCAR-4 ovarian | OVCAR-5 ovarian | OVCAR-8 ovarian | PC-3 prostate | RPMI-8226 leukemia | RXF 393 renal | SF-268 CNS | SF-295 CNS | SF-539 CNS | SK-MEL-2 melanoma | SK-MEL-28 melanoma | SK-OV-3 ovarian | SN12C renal | SNB-19 CNS | SNB-75 CNS | SW-620 colon | T-47D breast | TK-10 renal | U251 CNS | UACC-257 melanoma | UACC-62 melanoma
